# Test results published in US20080139604A1, “Method of Treating Atherosclerosis, Dyslipidemias and Related Conditions” (priority 2005, published 2008).
# Tested on: DP-independent nicotinic acid induced vasodilation
# Test: nicotinic acid induced vasodilation in mice genetically devoid of the DP receptor
# Format: in vivo, mouse
# Details: mice genetically devoid of the DP receptor (DP1), administration or pre-administration
# Procedure: Thus, some portion of nicotinic acid induced vasodilation may not be dependent on the DP receptor. This DP-independent vasodilation can be inhibited by the administration or pre-administration of aspirin, a COX-1/COX-II inhibitor, to the mice. Human doses range from about 20-25 mg to as high as about 650 mg, administered about one hour to about 30 minutes before the administration of nicotinic acid, up to simultaneous administration, and repeated as necessary up to about every four hours. Thus a combination of DP receptor antagonist and aspirin is particularly effective to suppress nicotinic acid induced flushing in humans, attenuating some or all of the flushing that is not suppressed by the […] or by aspirin alone.
smiles,measurement,value
CC(=O)Oc1ccccc1C(=O)O [aspirin],inhibition of DP-independent nicotinic acid induced vasodilation,inhibited
